The values below come from ChEMBL document CHEMBL6103550, “Pyrazolo-1-carbothioamides as EGR-1-DNA binding disruptors” (Bioorg Med Chem Lett, 2025).

Molecules are shown by their SMILES.

Sequence of Early growth response protein 1 (Homo sapiens) (P18146 whole entry, looked up): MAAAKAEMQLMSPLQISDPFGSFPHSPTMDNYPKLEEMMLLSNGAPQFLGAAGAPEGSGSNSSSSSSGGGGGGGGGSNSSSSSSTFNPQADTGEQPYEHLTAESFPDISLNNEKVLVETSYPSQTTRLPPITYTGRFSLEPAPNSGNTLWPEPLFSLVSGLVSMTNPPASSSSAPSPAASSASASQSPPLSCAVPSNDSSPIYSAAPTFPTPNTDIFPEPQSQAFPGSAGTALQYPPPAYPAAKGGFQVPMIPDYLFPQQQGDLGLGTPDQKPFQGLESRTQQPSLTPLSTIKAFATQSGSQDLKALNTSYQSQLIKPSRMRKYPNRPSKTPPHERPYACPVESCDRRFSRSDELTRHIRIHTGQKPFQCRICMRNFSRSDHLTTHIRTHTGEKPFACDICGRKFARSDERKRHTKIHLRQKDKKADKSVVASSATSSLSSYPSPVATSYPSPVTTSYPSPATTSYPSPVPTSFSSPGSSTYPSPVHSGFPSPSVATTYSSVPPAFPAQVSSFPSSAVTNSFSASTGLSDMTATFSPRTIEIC

One test has as its target Early growth response protein 1 (Homo sapiens) (UniProt P18146). The test can be described thus: Disruption of EGR-1-DNA binding in human HaCaT cell nuclear extract at 50 uM in the presence of biotin-EBS oligonucleotide probe (5'-CAAAAAGGAGGAAGGTGAGGGAA-biotin-3') and poly(dI-dC) by EMSA analysis relative to control. The test is classed as subcellular.
Settings: not given
For the compound `COc1ccc(NC(=S)N2N=C(c3ccc4ccccc4c3O)CC2c2ccccc2OC)cc1` (stereo not given), the Activity is 31.2%.

In the case of `COc1cc(O)c(C2=NN(C(=S)Nc3ccccc3OC)C(c3cccc4ccccc34)C2)c(OC)c1` (stereo not given), the Activity is 71.3%.

As to `COc1cccc(NC(=S)N2N=C(c3c(O)cc(OC)cc3OC)CC2c2cccc3ccccc23)c1` (stereo not given), the Activity came out at 53.3%.

Regarding `COc1cccc(NC(=S)N2N=C(c3c(O)cccc3OC)CC2c2ccc(OC)c3ccccc23)c1` (stereo not given), the Activity was 62.7%.

`COc1ccc(O)c(C2=NN(C(=S)Nc3ccccc3OC)C(c3ccc(OC)c4ccccc34)C2)c1` (stereo not given): the Activity was found to be 21.8%.

`COc1ccc(NC(=S)N2N=C(c3ccc4ccccc4c3O)CC2c2ccc(OC)cc2OC)c(OC)c1` (stereo not given): the Activity came to 60.2%.

With `COc1ccc(NC(=S)N2N=C(c3cc(OC)c(OC)cc3O)CC2c2ccc(OC)c3ccccc23)cc1` (stereo not given), the Activity was found to be 57.3%.

In the case of `COc1ccc(NC(=S)N2N=C(c3ccc(OC)cc3O)CC2c2cccc3ccccc23)cc1` (stereo not given), the Activity is 35.1%.

For `COc1ccc(/C=C/c2cc(OC)cc(OC)c2-c2oc3ccc([N+](=O)[O-])cc3c(=O)c2O)cc1`, the Activity came to 36.5%.

In the case of `COc1cccc(NC(=S)N2N=C(c3c(O)cc(OC)cc3OC)CC2c2ccc(OC)c3ccccc23)c1` (stereo not given), the Activity was found to be 56.7%.

Regarding `COc1ccc(C2=NN(C(=S)Nc3cc(OC)c(OC)c(OC)c3)C(c3ccc(OC)c4ccccc34)C2)c(O)c1` (stereo not given), the Activity is 73.3%.

Consider `COc1cc(O)c(C2=NN(C(=S)Nc3cc(OC)c(OC)c(OC)c3)C(c3cccc4ccccc34)C2)c(OC)c1` (stereo not given), for which the Activity was 38.2%.

Regarding `COc1ccc(NC(=S)N2N=C(c3ccc4ccccc4c3O)CC2c2cccc(OC)c2OC)c(OC)c1` (stereo not given), the Activity stood at 67.8%.

Take `COc1ccc(C2=NN(C(=S)Nc3ccccc3)C(c3cccc4ccccc34)C2)c(O)c1` (stereo not given): the Activity stood at 35.1%.

On to `COc1ccccc1NC(=S)N1N=C(c2ccc3ccccc3c2O)CC1c1cc(OC)c(OC)cc1OC` (stereo not given), for which the Activity worked out at 68.8%.

With `COc1cc(OC)cc(C2CC(c3ccc4ccccc4c3O)=NN2C(=S)Nc2cc(OC)c(OC)c(OC)c2)c1` (stereo not given), the Activity was 67.5%.

Regarding `COc1ccc(NC(=S)N2N=C(c3ccc(OC)cc3O)CC2c2ccc(OC)c3ccccc23)cc1` (stereo not given), the Activity was determined as 74.4%.

Consider `COc1cccc(NC(=S)N2N=C(c3cc(OC)c(OC)cc3O)CC2c2cccc3ccccc23)c1` (stereo not given), for which the Activity was 36.4%.

In the case of `COc1ccc(NC(=S)N2N=C(c3ccc4ccccc4c3O)CC2c2c(OC)cc(OC)cc2OC)cc1` (stereo not given), the Activity was 64.2%.

Turning to `COc1ccc(C2CC(c3ccc4ccccc4c3O)=NN2C(=S)Nc2cc(OC)c(OC)c(OO)c2)cc1` (stereo not given), the Activity came to 70.5%.

`COc1cccc(NC(=S)N2N=C(c3ccc4ccccc4c3O)CC2c2ccc(OC)c(OC)c2OC)c1` (stereo not given): the Activity came to 38%.

For the compound `COc1cccc(NC(=S)N2N=C(c3c(O)cccc3OC)CC2c2cccc3ccccc23)c1` (stereo not given), the Activity was 36.4%.

On to `COc1ccc(C2CC(c3ccc4ccccc4c3O)=NN2C(=S)Nc2ccccc2)cc1` (stereo not given), for which the Activity is 52.8%.

For the compound `COc1cccc(NC(=S)N2N=C(c3ccc4ccccc4c3O)CC2c2cc(OC)cc(OC)c2)c1` (stereo not given), the Activity was found to be 42.8%.

For the compound `COc1ccc(NC(=S)N2N=C(c3ccc4ccccc4c3O)CC2c2c(OC)cc(OC)cc2OC)c(OC)c1` (racemic), the Activity is 82.2%.

For the compound `COc1cc(O)c(C2=NN(C(=S)Nc3ccccc3)C(c3cccc4ccccc34)C2)cc1OC` (stereo not given), the Activity amounted to 53.6%.

In the case of `COc1cccc(C2CC(c3ccc4ccccc4c3O)=NN2C(=S)Nc2cc(OC)c(OC)c(OC)c2)c1` (stereo not given), the Activity stood at 30.8%.

For the compound `COc1cc(OC)cc(C2CC(c3ccc4ccccc4c3O)=NN2C(=S)Nc2ccccc2OC)c1` (stereo not given), the Activity came out at 40.8%.

With `COc1ccc(NC(=S)N2N=C(c3cc(OC)c(OC)cc3O)CC2c2cccc3ccccc23)cc1` (stereo not given), the Activity was 46.9%.

Consider `COc1cc(NC(=S)N2N=C(c3c(O)cccc3OC)CC2c2cccc3ccccc23)cc(OC)c1OC` (stereo not given), for which the Activity was found to be 51.6%.

For the compound `COc1cccc(NC(=S)N2N=C(c3ccccc3O)CC2c2ccc(OC)c3ccccc23)c1` (stereo not given), the Activity worked out at 17.1%.

As to `COc1ccccc1NC(=S)N1N=C(c2c(O)cccc2OC)CC1c1cccc2ccccc12` (stereo not given), the Activity stood at 40.9%.

Regarding `COc1ccc(NC(=S)N2N=C(c3ccc4ccccc4c3O)CC2c2cc(OC)c(OC)cc2OC)cc1` (stereo not given), the Activity was determined as 69%.

For the compound `COc1ccc(NC(=S)N2N=C(c3ccc4ccccc4c3O)CC2c2cc(OC)c(OC)cc2OC)c(OC)c1` (stereo not given), the Activity came to 56.5%.

Turning to `COc1cc(O)c(C2=NN(C(=S)Nc3cc(OC)c(OC)c(OC)c3)C(c3cccc4ccccc34)C2)cc1OC` (stereo not given), the Activity was determined as 42.4%.

As to `COc1ccc(NC(=S)N2N=C(c3ccc4ccccc4c3O)CC2c2ccc(OC)c(OC)c2OC)c(OC)c1` (stereo not given), the Activity was found to be 46.8%.

With `COc1cccc(NC(=S)N2N=C(c3ccc(OC)cc3O)CC2c2cccc3ccccc23)c1` (stereo not given), the Activity is 32%.

As to `COc1ccc(NC(=S)N2N=C(c3c(O)ccc4ccccc34)CC2c2ccccc2OC)cc1` (stereo not given), the Activity was 31.8%.

On to `COc1cccc(NC(=S)N2N=C(c3ccc(OC)cc3O)CC2c2ccc(OC)c3ccccc23)c1` (stereo not given), for which the Activity was 56.4%.

On to `COc1ccc(NC(=S)N2N=C(c3ccc4ccccc4c3O)CC2c2cccc(OC)c2OC)cc1` (stereo not given), for which the Activity amounted to 27%.

As for `COc1ccccc1NC(=S)N1N=C(c2ccc3ccccc3c2O)CC1c1ccccc1OC` (stereo not given), the Activity came out at 33.2%.

Turning to `COc1cc(NC(=S)N2N=C(c3ccc4ccccc4c3O)CC2c2cccc(OC)c2OC)cc(OC)c1OC` (stereo not given), the Activity came to 35.6%.

For the compound `COc1ccc(C2CC(c3ccc4ccccc4c3O)=NN2C(=S)Nc2ccccc2OC)c(OC)c1` (stereo not given), the Activity was determined as 46%.

As for `COc1ccc(NC(=S)N2N=C(c3cc(OC)ccc3O)CC2c2ccc(OC)c3ccccc23)cc1` (stereo not given), the Activity was 28%.

For `COc1cc(NC(=S)N2N=C(c3c(O)cccc3OC)CC2c2ccc(OC)c3ccccc23)cc(OC)c1OC` (stereo not given), the Activity was 71.8%.

Take `COc1ccccc1NC(=S)N1N=C(c2ccc3ccccc3c2O)CC1c1ccc(OC)c(OC)c1OC` (stereo not given): the Activity worked out at 46.5%.

In the case of `COc1cccc(NC(=S)N2N=C(c3ccc4ccccc4c3O)CC2c2ccccc2OC)c1` (stereo not given), the Activity was found to be 44.8%.

Regarding `COc1cc(O)c(C2=NN(C(=S)Nc3cc(OC)c(OC)c(OC)c3)C(c3ccc(OC)c4ccccc34)C2)cc1OC` (stereo not given), the Activity stood at 59.1%.

As for `COc1ccc(C2CC(c3ccc4ccccc4c3O)=NN2C(=S)Nc2ccccc2)c(OC)c1OC` (stereo not given), the Activity was 44%.

Regarding `COc1ccc(NC(=S)N2N=C(c3c(O)cccc3OC)CC2c2ccc(OC)c3ccccc23)cc1` (stereo not given), the Activity was found to be 66.7%.

With `COc1cccc(NC(=S)N2N=C(c3ccc4ccccc4c3O)CC2c2cc(OC)c(OC)cc2OC)c1` (stereo not given), the Activity amounted to 55.5%.

Regarding `COc1cc(O)c(C2=NN(C(=S)Nc3ccccc3)C(c3ccc(OC)c4ccccc34)C2)c(OC)c1` (stereo not given), the Activity is 73.3%.

For `COc1ccc(C2CC(c3ccc4ccccc4c3O)=NN2C(=S)Nc2ccc(OC)cc2OC)cc1` (stereo not given), the Activity is 64.2%.

Turning to `COc1cc(OC)c(C2CC(c3ccc4ccccc4c3O)=NN2C(=S)Nc2ccccc2)cc1OC` (stereo not given), the Activity was found to be 81.8%.

With `COc1ccc(NC(=S)N2N=C(c3c(O)cccc3OC)CC2c2cccc3ccccc23)cc1` (stereo not given), the Activity was determined as 54%.

On to `COc1ccccc1NC(=S)N1N=C(c2c(O)ccc3ccccc23)CC1c1ccccc1OC` (stereo not given), for which the Activity came to 22.9%.

`COc1ccccc1NC(=S)N1N=C(c2cc(OC)c(OC)cc2O)CC1c1cccc2ccccc12` (stereo not given): the Activity was determined as 53.3%.

In the case of `COc1ccccc1NC(=S)N1N=C(c2ccccc2O)CC1c1ccc(OC)c2ccccc12` (stereo not given), the Activity is 29.1%.

Consider `COc1ccc(C2=NN(C(=S)Nc3ccccc3OC)C(c3ccc(OC)c4ccccc34)C2)c(O)c1` (stereo not given), for which the Activity worked out at 57.3%.

As to `COc1cccc(C2CC(c3ccc4ccccc4c3O)=NN2C(=S)Nc2ccc(OC)cc2OC)c1` (stereo not given), the Activity amounted to 27%.

For the compound `COc1cccc(NC(=S)N2N=C(c3ccc4ccccc4c3O)CC2c2c(OC)cc(OC)cc2OC)c1` (stereo not given), the Activity came out at 64.8%.

For `COc1ccc(C2CC(c3ccccc3O)=NN2C(=S)Nc2ccccc2)c2ccccc12` (stereo not given), the Activity was 22.7%.

`COc1cccc(NC(=S)N2N=C(c3ccc4ccccc4c3O)CC2c2cccc(OC)c2)c1` (stereo not given): the Activity was 16.5%.

Consider `COc1cccc(O)c1C1=NN(C(=S)Nc2ccccc2)C(c2ccc(OC)c3ccccc23)C1` (stereo not given), for which the Activity stood at 64%.

As to `COc1ccc(NC(=S)N2N=C(c3ccc4ccccc4c3O)CC2c2ccc(OC)cc2OC)cc1` (stereo not given), the Activity was determined as 44.5%.

On to `COc1ccc(NC(=S)N2N=C(c3ccc4ccccc4c3O)CC2c2ccc(OC)c(OC)c2OC)cc1` (stereo not given), for which the Activity was found to be 49.5%.

Take `COc1cc(OC)cc(C2CC(c3ccc4ccccc4c3O)=NN2C(=S)Nc2ccccc2)c1` (stereo not given): the Activity was determined as 59%.

For the compound `COc1cccc(NC(=S)N2N=C(c3ccc4ccccc4c3O)CC2c2ccc(OC)cc2OC)c1` (stereo not given), the Activity was 48%.

In the case of `COc1cc(O)c(C2=NN(C(=S)Nc3ccccc3OC)C(c3ccc(OC)c4ccccc34)C2)c(OC)c1` (stereo not given), the Activity is 70.7%.

`COc1ccccc1NC(=S)N1N=C(c2c(O)cccc2OC)CC1c1ccc(OC)c2ccccc12` (stereo not given): the Activity stood at 67.3%.

Another test shares this target. The test is described as follows: Disruption of EGR-1-DNA binding in TNF-alpha-stimulated human HaCaT cell nuclear extract assessed as reduction in DNA-protein complex formation pretreated for 1 hr followed by incubation of nuclear extract with biotin-EBS oligonucleotide probe (5'-CAAAAAGGAGGAAGGTGAGGGAA-biotin-3') by EMSA analysis. The test is classed as subcellular. To be noted: Nucleus, dose 10-20 µM. (In general: Mobility shift assays separate free from complexed probe on a gel.)
For the compound `COc1ccc(NC(=S)N2N=C(c3ccc4ccccc4c3O)CC2c2c(OC)cc(OC)cc2OC)c(OC)c1` (racemic), the Activity entry is “Dose-dependent-effect”.

Another test shares this target. The test can be described thus: Disruption of EGR-1-DNA binding in TNF-alpha-stimulated human HaCaT cells assessed as decrease in TSLP mRNA level in presence of TNF-alpha by RT-PCR analysis. The test is classed as cell-based. To be noted: dose 10-20 µM.
Take `COc1ccc(NC(=S)N2N=C(c3ccc4ccccc4c3O)CC2c2c(OC)cc(OC)cc2OC)c(OC)c1` (racemic): the Activity entry is “Dose-dependent-effect”.

Another test has the same target. The test is described as follows: Disruption of EGR-1-DNA binding in TNF-alpha-stimulated human HaCaT cells assessed as decrease in IL-31 mRNA level in presence of TNF-alpha by RT-PCR analysis. The test is classed as cell-based. To be noted: dose 10-20 µM.
Turning to `COc1ccc(NC(=S)N2N=C(c3ccc4ccccc4c3O)CC2c2c(OC)cc(OC)cc2OC)c(OC)c1` (racemic), the Activity entry was “Dose-dependent-effect”.

For a further test the target is unchanged. The test is described as follows: Disruption of EGR-1-DNA binding in TNF-alpha-stimulated human HaCaT cells assessed as decrease in IL-6 mRNA level in presence of TNF-alpha by RT-PCR analysis. To be noted: dose 10-20 µM. The class given is cell-based.
Regarding `COc1ccc(NC(=S)N2N=C(c3ccc4ccccc4c3O)CC2c2c(OC)cc(OC)cc2OC)c(OC)c1` (racemic), the Activity entry is “Dose-dependent-effect”.

The target is the same in another test. The test is described as follows: Disruption of EGR-1-DNA binding in TNF-alpha-stimulated human HaCaT cells assessed as decrease in CCL-2 mRNA level in presence of TNF-alpha by RT-PCR analysis. The class given is cell-based. Particulars: dose 10-20 µM.
With `COc1ccc(NC(=S)N2N=C(c3ccc4ccccc4c3O)CC2c2c(OC)cc(OC)cc2OC)c(OC)c1` (racemic), the Activity entry is “Dose-dependent-effect”.
